Among the data in patent US10442803B2, “Tricyclic heterocycles as bet protein inhibitors” (Incyte Corporation, priority 2013, dated 2019) are IC50 values, retold here.

One test concerns KMS.12.BM cells. Kind of test: KMS.12.BM cell viability assay. The class given is cell-based. The conditions noted are these: 72 h; KMS.12.BM human myeloma cells, 3 days, Cell Titer-GLO ATP quantitation; read-out: KMS cellular IC50. In short, it runs like this:
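IC50 derived from luminescent ATP quantitation (Cell Titer-GLO) of viable cells after 3-day compound treatment. KMS.12.BM human myeloma line seeded at 5000 cells/well in RPMI with 10% FBS.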
(In ATP-based viability assays light output follows the ATP content of the culture.)

The next test has as its target BRD4-BD1 (Homo sapiens (Human), UniProt O60885). Put plainly: BRD4 AlphaScreen assay (BRD4-BD1). Type of test: binding. The conditions noted are these: H4Ac4 peptide, read-out: BRD4 BD-1 enzyme IC50. Here is the method:
(§1) BRD4-BD1 and BRD4-BD2 assays were conducted in white 384-well polystyrene plate in a final volume of 20 μL for BD1 and 40 μL for BD2. Inhibitors were first serially diluted in DMSO and added to the plate wells before the addition of other reaction components. The final concentration of DMSO in the assay was 1.25% (BD1) and 0.83% (BD2). The assays were carried out at room temperature for 75 min. in the assay buffer (50 mM HEPES, pH 7.4, 100 mM NaCl, 0.05% CHAPS, 0.01% BSA), containing 50 nM Biotin-labeled tetra-acetylated histone H4 peptide (H4Ac4), 3.8 nM (BRD4-BD1, BPS Bioscience #31040) or 20 nM (BRD4-BD2, BPS Bioscience #31041). The reaction followed by the addition of 20 μL of assay buffer supplemented with Streptavidin donor beads (PerkinElmer 6760002) and GSH Acceptor beads (PerkinElmer-AL109C) at 4 μg/mL under reduced light. After plate sealing, the plate was incubated in the dark at room temperature for 75 min. before reading on a PHERAstar FS plate reader (BMG Labtech). IC50 determination was performed by fitting the curve of percent control activity versus the log of the inhibitor concentration using the GraphPad Prism 5.0 software.
On the technique in general: Alpha assays give light when donor and acceptor beads are brought close together.

A further test concerns the target BRD4-BD2 (Homo sapiens (Human), UniProt O60885). Kind of test: BRD4 AlphaScreen assay (BRD4-BD2). Type of test: binding. Particulars: H4Ac4 peptide, read-out: BRD4 BD-2 enzyme IC50. The method, then: as §1

Counter-ions that a name gives are not always drawn.

Broadly, the IC50 is the concentration needed to halve the response being measured.

With `Cc1cc2c(ccc3nnc(C)n32)n1[C@@H](C)c1ccccc1` (single isomer, unassigned) [Example 5, 1,7-dimethyl-6-(1-phenylethyl)-6H-pyrrolo[2,3-e][1,2,4]triazolo[4,3-a]pyridine], the IC50 is 1000 to 10000 nM with KMS.12.BM cells, 100 to 1000 nM on BRD4-BD1 and at most 100 nM on BRD4-BD2.

Take `Cc1nnc2ccc3c(cc(-c4ccn(C5CN(S(C)(=O)=O)C5)n4)n3Cc3cccc(Cl)c3)n12` [Example 109, 6-(3-chlorobenzyl)-1-methyl-7-{1-[1-(methylsulfonyl)azetidin-3-yl]-1H-pyrazol-3-yl}-6H-pyrrolo[2,3-e][1,2,4]triazolo[4,3-a]pyridine]: the results for the IC50 with KMS.12.BM cells and at BRD4-BD2 were at most 1000 nM and at most 100 nM, respectively.

For the molecule `CCN1CC(CC#N)(n2ccc(-c3cc4c(ccc5nnc(C)n54)n3Cc3ccccc3)n2)C1` [Example 110, {3-[3-(6-benzyl-1-methyl-6H-pyrrolo[2,3-e][1,2,4]triazolo[4,3-a]pyridin-7-yl)-1H-pyrazol-1-yl]-1-ethylazetidin-3-yl}acetonitrile], the IC50 with KMS.12.BM cells is at most 1000 nM; on BRD4-BD1, at most 100 nM.

`Cc1nnc2ccc3c(cc(-c4ccn(C5(CC#N)CN(C(C)C)C5)n4)n3Cc3ccccc3)n12` [Example 111, {3-[3-(6-benzyl-1-methyl-6H-pyrrolo[2,3-e][1,2,4]triazolo[4,3-a]pyridin-7-yl)-1H-pyrazol-1-yl]-1-isopropylazetidin-3-yl}acetonitrile]: the IC50 with KMS.12.BM cells was at most 1000 nM; at BRD4-BD1, at most 100 nM.

Consider `Cc1nnc2ccc3c(cc(-c4nnco4)n3Cc3cc(Cl)cc(CN4CC(O)C4)c3)n12` [Example 139, 1-(3-Chloro-5-{[1-methyl-7-(1,3,4-oxadiazol-2-yl)-6H-pyrrolo[2,3-e][1,2,4]triazolo[4,3-a]pyridin-6-yl]methyl}benzyl)azetidin-3-ol], for which the IC50 was 1000 to 10000 nM in the test with KMS.12.BM cells, at most 100 nM at BRD4-BD1 and at most 100 nM at BRD4-BD2.

With `Cc1nnc2ccc3c(cc(-c4nnco4)n3Cc3cc(Cl)cc(CN4CCC4)c3)n12` [Example 140, 6-[3-(Azetidin-1-ylmethyl)-5-chlorobenzyl]-1-methyl-7-(1,3,4-oxadiazol-2-yl)-6H-pyrrolo[2,3-e][1,2,4]triazolo[4,3-a]pyridine], the IC50 in the test with KMS.12.BM cells was at most 1000 nM; at BRD4-BD2 it was […].

For the molecule `Cc1nnc2ccc3c(cc(-c4nnco4)n3Cc3cccc(Cl)c3)n12` [Example 141, 6-(3-Chlorobenzyl)-1-methyl-7-(1,3,4-oxadiazol-2-yl)-6H-pyrrolo[2,3-e][1,2,4]triazolo[4,3-a]pyridine trifluoroacetate salt], the IC50 was at most 1000 nM in the test with KMS.12.BM cells, at most 100 nM at BRD4-BD1 and at most 100 nM on BRD4-BD2.

Consider `Cc1nnc2ccc3c(cc(-c4ccn(C5CNC5)n4)n3Cc3cccc(Cl)c3)n12` [Example 156, 7-(1-azetidin-3-yl-1H-pyrazol-3-yl)-6-(3-chlorobenzyl)-1-methyl-6H-pyrrolo[2,3-e][1,2,4]triazolo[4,3-a]pyridine bis(trifluoroacetate) salt], for which the IC50 is at most 1000 nM with KMS.12.BM cells, at most 100 nM on BRD4-BD1 and at most 100 nM on BRD4-BD2.

Consider `Cc1nnc2ccc3c(cc(-c4ccn(C5(CC#N)CNC5)n4)n3Cc3cccc(Cl)c3)n12` [Example 157, (3-{3-[6-(3-Chlorobenzyl)-1-methyl-6H-pyrrolo[2,3-e][1,2,4]triazolo[4,3-a]pyridin-7-yl]-1H-pyrazol-1-yl}azetidin-3-yl)acetonitrile bis(trifluoroacetate) salt], for which the IC50 in the test with KMS.12.BM cells was at most 1000 nM; on BRD4-BD1 it was at most 100 nM; at BRD4-BD2 it was at most 100 nM.

On to `Cc1nc2c(cc(NC3CCN(C)CC3)c3nnc(C)n32)n1Cc1ccccc1` [Example 223, 3-Benzyl-2,8-dimethyl-N-(1-methylpiperidin-4-yl)-3H-imidazo[4,5-e][1,2,4]triazolo[4,3-a]pyridin-5-amine], for which the IC50 was at most 1000 nM in the test on KMS.12.BM cells and at most 100 nM at BRD4-BD1.
